In patent US8921268B2, “Herbicidal composition” (Sumitomo Chemical Company, Limited, priority 2012, dated 2014):

Columns and labels:
Echinochloa crus-galli = test: Pre-emergence soil spray pot test, herbicidal activity (Example 3); format: in vivo; settings: scale 0 to 100; 2 g/ha; soil spray on day of sowing; twenty days after spray treatment; greenhouse
Description: (§1) Echinochloa crus-galli was sowed on a plastic pot filled with a soil. Following the sowing, on the day of the sowing, a mixed liquid of flumioxazin, isoxaflutole, and cyprosulfamide was sprayed uniformly so that the amounts of the agents might become those shown in Table 3 in a sprayed water amount of 500 L/ha. The mixed liquid of flumioxazin, isoxaflutole, and cyprosulfamide was prepared by dissolving the respective compounds in prescribed amounts separately in acetone containing 2% (w/v) of Tween 20 (surfactant, produced by Tokyo Chemical Industry Co., Ltd.), diluting the respective solutions with water and then combining them, followed by dilution with water so that the final acetone concentration of the spray liquid might be 10% by volume. After the spray treatment, the pot was carried into a greenhouse. Twenty days after the spray treatment, the herbicidal activity to Echinochloa crus-galli was evaluated.

Ipomoea hederacea = test: Pre-emergence soil spray pot test, herbicidal activity (Example 2); format: in vivo; settings: scale 0 to 100; 20 g/ha; soil spray on day of sowing; ten days after spray treatment; greenhouse
Description: as §1, with “Ipomoea hederacea” for “Echinochloa crus-galli”, “2” for “3”, “Ten” for “Twenty”

## C#CCN1C(=O)COc2cc(F)c(N3C(=O)C4=C(CCCC4)C3=O)cc21 [Flumioxazin]
Echinochloa crus-galli
  Herbicidal activity Echinochloa crus-galli: 10
Ipomoea hederacea
  Herbicidal activity Ipomoea hederacea: 80
